Laboratory results from patent US20220033784A1 (priority 2020, published 2022).

B1: Fc-IL2-K43N:Y45T-E62N:K64T (protein)
chain: APTSSSTKKTQLQLEHLLLDLQMILNGINNYKNPKLTRMLTFNFTMPKKATELKHLQCLEENLTPLEEVLNLAQSKNFHLRPRDLISNINVIVLELKGSETTFMCEYADETATIVEFLNRWITFCQSIISTLT

Assays:
NK cells = assay: pSTAT5 flow cytometry in hPBMCs: NK cells; type: cell-based, human; conditions: for Selectivity NK/Treg: larger numbers = greater selectivity for NK cells over Treg cells; for EC50: pSTAT5 MFI in hPBMCs, 20 minutes at 37° C., read-out: EC50 NK cell
Method: (§1) In this experiment, the ability of the IL-2 variants to activate CD8 T cells, NK cells, and Treg cells was measured by monitoring relative changes in pSTAT5 in response to treatment of the cells with the IL-2 variants. The IL-2 variants tested in this experiment were each fused to a human IgG Fc domain as described in Example 15. […]; Blood from healthy volunteers was taken and hPBMCs were isolated using a ficoll-paque (GE Healthcare) gradient, washed with PBS to remove platelets, and cleared of red blood cells using ACK lysis buffer (Gibco). Cells were then plated at 1*10e6 cells/well in 90 uL serum-free RPMI 1640 media (Gibco) and allowed to rest for 2-4 hours at 37° C. After resting, cells were treated the IL-2 molecules listed above (10 uL), at the indicated concentrations for 20 minutes at 37° C., and 25 uL 20% PFA was immediately added with gentle pipetting. Cells were then pelleted by centrifugation and aspirated (400 RCF, 7 minutes).
(§2) Phosflow Perm Buffer III (BD Biosciences) was added (200 uL), and the cells were mixed gently by pipetting up and down once to prevent clumping. Cells were then washed twice with 200 uL FACS buffer followed by pelleting by centrifugation (400 RCF, 7 minutes). Cells were in resuspended in 200 uL FACS buffer and incubated with the antibodies in Table D and Table E per standard procedure then suspended in 200 uL FACS buffer for FACS analysis. Data was analyzed using FlowJo v10 software.

Treg cells = assay: pSTAT5 flow cytometry in hPBMCs: Treg cells; type: cell-based, human; conditions: pSTAT5 MFI in hPBMCs, 20 minutes at 37° C.; read-out: EC50 Treg cell
Method: as §1, §2

CD8 T cells = assay: pSTAT5 flow cytometry in hPBMCs: CD8 T cells; type: cell-based, human; conditions: for Selectivity CD8/Treg: larger numbers = greater selectivity for CD8 T cells over Treg cells; for EC50: pSTAT5 MFI in hPBMCs, 20 minutes at 37° C., read-out: EC50 CD8 T cell
Method: as §1, §2

[1] = system: iTreg cells (IL-2 CD25/CD122/CD132 (α/β/γ) receptor complex); assay: pSTAT5 ELISA in iTreg cells; type: cell-based; conditions: pSTAT5 level 50% of maximum, InstantOne ELISA; read-out: EC50 iTreg cell
Method: (§3) The ability of the IL-2 variants to activate HH cells and iTregs was measured by monitoring relative changes in phosphorylated STAT5 (pSTAT5) in response to treatment of the cells with the IL-2 variants. pSTAT5 is known to be a downstream consequence of IL-2 signaling. HH T cells (ATCC CRL-2105) are a line of T cells that lack the alpha chain of the IL-2 receptor complex, but that contain the beta and gamma chains of the IL-2 receptor complex. iTreg cells were prepared from Fresh Leuko Paks obtained from […] Technologies (CAT #70500.1, Donor #D001003551).
(§4) For IL-2 activation, the HH cells and iTreg cells were plated at 2*10e6 cells/well in 50 ul serum-free RPMI 1640 media (Gibco), and allowed to rest at 37° C. After resting, cells were treated the IL-2 molecules listed above, and cells were then pelleted by centrifugation.
(§5) Following treatment with the IL-2 molecules, cell induction status was evaluated by the InstantOne ELISA pSTAT5 detection kit (Invitrogen).

[2] = system: HH cells (IL-2 CD122/CD132 (β/γ) receptor complex); assay: pSTAT5 ELISA in HH cells; type: cell-based; conditions: for Selectivity HH/iTreg: higher value = greater selectivity for HH cells; for EC50: pSTAT5 level 50% of maximum, InstantOne ELISA, read-out: EC50 HH T cell
Method: as §3, §4, §5

Row | Molecule | Selectivity NK/Treg (NK cells) | EC50 (NK cells) | EC50 (Treg cells) | Selectivity CD8/Treg (CD8 T cells) | EC50 (CD8 T cells) | EC50 [1] | Selectivity HH/iTreg [2] | EC50 [2] | relative selectivity for HH cells vs iTreg cells among the tested molecules ([2]; Table C)
1 | Fc-IL2-K35N | 0.0276 | 2.54 nM | 0.07 nM | 0.00284 | 24.6 nM | – | – | – | –
2 | Fc-IL2-E62N:K64T | 0.62 | 3.65 nM | 2.26 nM | 0.09 | 25.5 nM | 0.02 nM | 3.84 × 10^−4 | 52.1 nM | –
3 | Fc-IL2-R38N:L40T | 2.58 | 3.06 nM | 7.89 nM | 0.3 | 26.5 nM | 0.11 nM | 6.75 × 10^−4 | 163 nM | –
4 | Fc-IL2-L72N:Q74T | 0.98 | 2.33 nM | 2.29 nM | 0.1 | 22.1 nM | 0.04 nM | 8.4 × 10^−4 | 47.6 nM | –
5 | Fc-IL2-T41N:K43T | 0.7 | 3.05 nM | 2.13 nM | 0.07 | 31.2 nM | 0.01 nM | 2.69 × 10^−4 | 37.2 nM | –
6 | B1 | – | – | – | – | – | 3.07 nM | 4.64 × 10^−2 | 66.2 nM | greatest relative selectivity
